Read-outs that look alike come from different tables or passages of the source.
Tests used:
[1] = biological target: T1, soluble DRB1*0401 molecules (DR4) (Homo sapiens, UniProt P01903+P01911, A100K/A169T/F76Y/I96L/K127E/L162R/M171V/N62H/P40V/Q125Y/R42H/S133A/S149N/S66Y/V115G/V209L/W38E); format: binding; set-up: key to DR4 binding: +++: high binding affinity; ++: moderate binding affinity; +: low binding affinity; −: no binding; key to Binding to DRB1 *0401: −: no binding/T cell response; +/−: weak binding/T cell response; +: intermediate binding/T cell response; ++: strong binding/T cell response
T1 construct: Soluble HLA class I A*0201 and HLA class II DRA1*0101/DRB1*0101/Ii, DRA1*0101/DRB1*0401/Ii and DRA1*0101/DRB1*0404/Ii molecules were expressed in SC-2 cells; made in house; host or cells: SC-2 cells

[2] = tested on: PBMC from CMV seropositive donors; format: cell-based, human; conditions: for Frequency in screen (number of refinding/number of donors' expressing the respective HLA type): literature known class I epitopes
[3] = biological target: T1, soluble DRB1*0401 molecules (DR4); format: binding; set-up: key: +++: high binding affinity; ++: moderate binding affinity; +: low binding affinity; −: no binding; conditions: individual pp65 15mer, SDS-stability assay
[4] = tested on: HLA-DRB1*0401-transgenic mice splenocytes; format: in vivo, mouse; set-up: key to DRB1*0401 mice total SC (T cell response) / DRB1*0401 mice CD4+ (T cell response): −: no binding/T cell response; +/−: weak binding/T cell response; +: intermediate binding/T cell response; ++: strong binding/T cell response
[5] = direct binding of individual peptides, SDS-stability assay, compared with YAR and HA306-318
[6] = IFN-gamma ELISpot, enriched CD4+ fraction of splenocytes of HLA-DR4 transgenic mice vaccinated with the longer peptide, ex vivo re-stimulation
[7] = IFN-gamma ELISpot, total splenocytes of HLA-DR4 transgenic mice vaccinated with the longer peptide, ex vivo re-stimulation

Sequence: AETPGCVAYIGISFLDQ [Peptide 1239]
- DR4 binding [1, 5]: −

Sequence: ARNLVPMVATVQGQN [Peptide 493]
- Reactivity, induction of IFN-gamma secretion ([2]; donor 10736, single peptides, secondary screen (FIG. 9)): inducers of IFN-gamma secretion

Sequence: ATKMQVIGDQYVKVY [Peptide 213]
- Induction of IFN-gamma secretion in T cells / PBMC from CMV seropositive donors [2]: can induce functional, IFN-gamma secreting T cells in humans

Sequence: EFFWDANDIYRIFAE [Peptide 512]
- Binding to DRB1*0401 [3]: −

Sequence: EYRHTWDRHDEGAAQ [Peptide 380]
- Binding to DRB1*0401 [3]: −
- DRB1*0401 mice CD4+ (T cell response) [4, 6]: −
- DRB1*0401 mice total SC (T cell response) [4, 7]: −
- Binding to DRB1 *0401 ([1]; soluble DRB1*0401 molecules): −

Sequence: GDDDVWTSGSDSDEE [Peptide 395]
- Recognition by T cells in HLA context other than described [2]: recognized by T cells in a different HLA context than known before

Sequence: GQNLKYQEFFWDAND [Peptide 505]
- DRB1*0401 mice CD4+ (T cell response) [4, 6]: −
- DRB1*0401 mice total SC (T cell response) [4, 7]: +
- Binding to DRB1 *0401 ([1]; soluble DRB1*0401 molecules): −

Sequence: GVSTANATVYMIDSVL [Peptide 1237]
- DR4 binding [1, 5]: ++

Sequence: HDEGAAQGDDDVWTS [Peptide 388]
- Binding to DRB1*0401 [3]: −

Sequence: HNPAVFTWPPWQAGI [Peptide 477]
- Induction of IFN-gamma secretion in T cells / PBMC from CMV seropositive donors [2]: can induce functional, IFN-gamma secreting T cells in humans

Sequence: IDELKTNSSLLTSILTYHVV [Peptide 1235]
- DR4 binding [1, 5]: −

Sequence: IHNPAVFTWPPWQAG [Peptide 476]
- Induction of IFN-gamma secretion in T cells / PBMC from CMV seropositive donors [2]: can induce functional, IFN-gamma secreting T cells in humans

Sequence: KTPRVTGGGANAGAS [Peptide 416]
- Recognition by T cells in HLA context other than described [2]: recognized by T cells in a different HLA context than known before

Sequence: KYQEFFWDANDIYRI [Peptide 509]
- DRB1*0401 mice CD4+ (T cell response) ([4]; mouse, in vivo): ++
- DRB1*0401 mice total SC (T cell response) ([4]; mouse, in vivo, sc): ++
- Binding to DRB1 *0401 [1]: −

Sequence: LEYRHTWDRHDEGAA [Peptide 379]
- Binding to DRB1*0401 [3]: −

Sequence: LKAESTVAPEEDTDE [Peptide 456]
- DRB1*0401 mice CD4+ (T cell response) [4, 6]: −
- DRB1*0401 mice total SC (T cell response) [4, 7]: −

Sequence: LLQRGPQYSEHPTFT [Peptide 356]
- DRB1*0401 mice CD4+ (T cell response) [4, 6]: +/−
- DRB1*0401 mice total SC (T cell response) [4, 7]: +/−

Sequence: LQRGPQYSEHPTFTS [Peptide 357]
- DRB1*0401 mice CD4+ (T cell response) ([4]; mouse, in vivo): +/−
- DRB1*0401 mice total SC (T cell response) ([4]; mouse, in vivo, sc): +

Sequence: MQVIGDQYVKVYLES [Peptide 216]
- Induction of IFN-gamma secretion in T cells / PBMC from CMV seropositive donors [2]: can induce functional, IFN-gamma secreting T cells in humans

Sequence: NFAGIEAAASAIQGNV [Peptide 1238]
- DR4 binding [1, 5]: −

Sequence: NFLLPDAQSIQAAAAG [Peptide 1241]
- DR4 binding [1, 5]: ++

Sequence: NLVPMVATV [reference compound]
- Number of donors recognizing the epitope ([2]; HLA A2 donors): 9 out of 10
- Frequency in screen (number of refinding/number of donors' expressing the respective HLA type) [2]: 8/9

Sequence: PAVFTWPPWQAGILA [Peptide 479]
- Induction of IFN-gamma secretion in T cells / PBMC from CMV seropositive donors [2]: can induce functional, IFN-gamma secreting T cells in humans

Sequence: PFMRPHERNGFTVLC [Peptide 262]
- Recognition by T cells in HLA context other than described [2]: recognized by T cells in a different HLA context than known before

Sequence: PTFTSQYRIQGKLEY [Peptide 367]
- Binding to DRB1*0401 [3]: −

Sequence: QGDDDVWTSGSDSDE [Peptide 394]
- Recognition by T cells in HLA context other than described [2]: recognized by T cells in a different HLA context than known before

Sequence: QGQNLKYQEFFWDAN [Peptide 504]
- DRB1*0401 mice CD4+ (T cell response) [4, 6]: −
- DRB1*0401 mice total SC (T cell response) [4, 7]: −
- Binding to DRB1 *0401 ([1]; soluble DRB1*0401 molecules): −

Sequence: QNLKYQEFFWDANDI [Peptide 506]
- DRB1*0401 mice CD4+ (T cell response) [4, 6]: +/−
- DRB1*0401 mice total SC (T cell response) [4, 7]: ++
- Binding to DRB1 *0401 ([1]; soluble DRB1*0401 molecules): −
- Induction of IFN-gamma secretion in T cells / PBMC from CMV seropositive donors [2]: can induce functional, IFN-gamma secreting T cells in humans

Sequence: QNQWKEPDVYYTSAF [Peptide 172]
- Binding to DRB1*0401 [3]: −

Sequence: QRGPQYSEHPTFTSQ [Peptide 358]
- DRB1*0401 mice CD4+ (T cell response) ([4]; mouse, in vivo): +/−
- DRB1*0401 mice total SC (T cell response) ([4]; mouse, in vivo, sc): ++

Sequence: QYSEHPTFTSQYRIQ [Peptide 362]
- DRB1*0401 mice CD4+ (T cell response) ([4]; mouse, in vivo): ++
- DRB1*0401 mice total SC (T cell response) ([4]; mouse, in vivo, sc): +

Sequence: RHTWDRHDEGAAQGD [Peptide 382]
- Binding to DRB1*0401 [3]: −
- DRB1*0401 mice CD4+ (T cell response) [4, 6]: −
- DRB1*0401 mice total SC (T cell response) [4, 7]: −
- Binding to DRB1 *0401 ([1]; soluble DRB1*0401 molecules): −

Sequence: RIFAELEGV
- Frequency in screen (number of refinding/number of donors' expressing the respective HLA type) [2]: 1/9

Sequence: RKTPRVTGGGAMAGA [Peptide 415]
- Recognition by T cells in HLA context other than described [2]: recognized by T cells in a different HLA context than known before

Sequence: RLKAESTVAPEEDTD [Peptide 455]
- Binding to DRB1*0401 [3]: −
- DRB1*0401 mice CD4+ (T cell response) [4, 6]: +/−
- DRB1*0401 mice total SC (T cell response) [4, 7]: +/−
- Binding to DRB1 *0401 ([1]; soluble DRB1*0401 molecules): +

Sequence: RQQNQWKEPDVYYTS [Peptide 170]
- Binding to DRB1*0401 [3]: −

Sequence: SGVMTRGRLKAESTV [Peptide 448]
- Binding to DRB1*0401 [3]: −
- DRB1*0401 mice CD4+ (T cell response) [4, 6]: −
- DRB1*0401 mice total SC (T cell response) [4, 7]: +/−
- Binding to DRB1 *0401 ([1]; soluble DRB1*0401 molecules): −

Sequence: SLILVSQYTPDSTPC [Peptide 54]
- Binding to DRB1*0401 [3]: −
- DRB1*0401 mice CD4+ (T cell response) [4, 6]: +/−
- DRB1*0401 mice total SC (T cell response) [4, 7]: −
- Binding to DRB1 *0401 ([1]; soluble DRB1*0401 molecules): −

Sequence: STPCHRGDNQLQVQH [Peptide 65]
- Binding to DRB1*0401 [3]: −
- DRB1*0401 mice CD4+ (T cell response) [4, 6]: −
- DRB1*0401 mice total SC (T cell response) [4, 7]: −
- Binding to DRB1 *0401 ([1]; soluble DRB1*0401 molecules): −

Sequence: TGSGAGIAQAAAGTV [Peptide 1236]
- DR4 binding [1, 5]: +

Sequence: TKMQVIGDQYVKVYL [Peptide 214]
- Induction of IFN-gamma secretion in T cells / PBMC from CMV seropositive donors [2]: can induce functional, IFN-gamma secreting T cells in humans

Sequence: TPRVTGGGAMAGAST [Peptide 417]
- Recognition by T cells in HLA context other than described [2]: recognized by T cells in a different HLA context than known before

Sequence: TRATKMQVIGDQYVK [Peptide 211]
- Induction of IFN-gamma secretion in T cells / PBMC from CMV seropositive donors [2]: can induce functional, IFN-gamma secreting T cells in humans

Sequence: VQGQNLKYQEFFWDA [Peptide 503]
- Induction of IFN-gamma secretion in T cells / PBMC from CMV seropositive donors [2]: can induce functional, IFN-gamma secreting T cells in humans

Sequence: VSDLKSSTAVIPGYPV [Peptide 1240]
- DR4 binding [1, 5]: +

Sequence: VTTERKTPRVTGGGA [Peptide 411]
- Recognition by T cells in HLA context other than described [2]: recognized by T cells in a different HLA context than known before

Sequence: WDRHDEGAAQGDDDV [Peptide 385]
- Binding to DRB1*0401 [3]: −
- DRB1*0401 mice CD4+ (T cell response) [4, 6]: −
- DRB1*0401 mice total SC (T cell response) [4, 7]: −
- Binding to DRB1 *0401 ([1]; soluble DRB1*0401 molecules): −

Sequence: YPKYVKQNTLKLAT [HA306-318, reference compound]
- DR4 binding [1]: ++

Sequence: YQEFFWDANDIYRIF [Peptide 510]
- Binding to DRB1*0401 [3]: −
- DRB1*0401 mice CD4+ (T cell response) [4, 6]: ++
- DRB1*0401 mice total SC (T cell response) [4, 7]: ++
- Binding to DRB1 *0401 ([1]; soluble DRB1*0401 molecules): −

Sequence: YRHTWDRHDEGAAQG [Peptide 381]
- DRB1*0401 mice CD4+ (T cell response) [4, 6]: −
- DRB1*0401 mice total SC (T cell response) [4, 7]: −
- Binding to DRB1 *0401 ([1]; soluble DRB1*0401 molecules): −

Sequence: YSEHPTFTSQYRIQG [Peptide 363]
- DRB1*0401 mice CD4+ (T cell response) ([4]; mouse, in vivo): ++
- DRB1*0401 mice total SC (T cell response) ([4]; mouse, in vivo, sc): +

Sequence: YTSAFVFPTKDVALR [Peptide 182]
- DRB1*0401 mice CD4+ (T cell response) [4, 6]: +/−
- DRB1*0401 mice total SC (T cell response) [4, 7]: +/−

Sequence: YYTSAFVFPTKDVAL [Peptide 181]
- DRB1*0401 mice CD4+ (T cell response) [4, 6]: +/−
- DRB1*0401 mice total SC (T cell response) [4, 7]: +
- Binding to DRB1 *0401 ([1]; soluble DRB1*0401 molecules): −
